The values below come from the NIST ThermoML archive (doi:10.1016/j.jct.2015.07.042).

This data set is described as follows: activity coefficient (dimensionless); of the first substance listed, at infinite dilution; xn = mol fraction of the nth substance listed. The following applies: 101 kPa, Liquid, Chromatography, x1 = 0.

Numbers after ± are expanded uncertainties.

Regarding `C=CCCCCCC` [oct-1-ene] + CCCCn1cc[n+](C)c1.COP(=O)([O-])OC, the activity coefficient by setting is: (358.15 K) 27.5 ± 1.9; (368.15 K) 26.9 ± 1.8; (378.15 K) 26.5 ± 1.8; (388.15 K) 26.2 ± 1.8.

Turning to `C1CCCCCC1` [cycloheptane] + CCCCn1cc[n+](C)c1.[Cl-], the activity coefficient by setting is: (358.15 K) 62.7 ± 4.3; (368.15 K) 58.8 ± 4; (378.15 K) 55.4 ± 3.8; (388.15 K) 53.6 ± 3.7.

As for `CCOC(C)=O` [ethyl acetate] + CCCCn1cc[n+](C)c1.CS(=O)(=O)[O-], the activity coefficient is, setting by setting: (358.15 K) 4.76 ± 0.32; (368.15 K) 4.88 ± 0.33; (378.15 K) 5 ± 0.34; (388.15 K) 5.28 ± 0.36.

In the case of `CCC[N+](=O)[O-]` [1-nitropropane] + CCCCn1cc[n+](C)c1.[Cl-], the activity coefficient came out at 2.51 ± 0.17 (358.15 K), 2.61 ± 0.18 (368.15 K), 2.69 ± 0.18 (378.15 K) and 2.8 ± 0.19 (388.15 K).

On to `C1COCCO1` [1,4-dioxane] + CCCCn1cc[n+](C)c1.COP(=O)([O-])OC, for which the activity coefficient was found to be 2.13 ± 0.14 (358.15 K), 2.19 ± 0.15 (368.15 K), 2.25 ± 0.15 (378.15 K) and 2.37 ± 0.16 (388.15 K).

Turning to `Cc1ccccc1` [toluene] + CCCCn1cc[n+](C)c1.CS(=O)(=O)[O-], the activity coefficient amounted to 5.32 ± 0.36 (358.15 K), 5.45 ± 0.37 (368.15 K), 5.68 ± 0.39 (378.15 K) and 5.84 ± 0.4 (388.15 K).

For `CCOCC` [diethyl ether] + CCCCn1cc[n+](C)c1.CS(=O)(=O)[O-], the activity coefficient (358.15 K) stood at 14.7 ± 1, the activity coefficient (368.15 K) was 14.9 ± 1, the activity coefficient (378.15 K) was 15 ± 1 and the activity coefficient (388.15 K) worked out at 15.3 ± 1.1.

Consider `C1COCCO1` [1,4-dioxane] + CCCCn1cc[n+](C)c1.[Cl-], for which the activity coefficient is, setting by setting: (358.15 K) 3.47 ± 0.24; (368.15 K) 3.55 ± 0.24; (378.15 K) 3.65 ± 0.25; (388.15 K) 3.74 ± 0.25.

With `CCC(=O)OC` [methyl propanoate] + CCCCn1cc[n+](C)c1.COP(=O)([O-])OC, the activity coefficient is, setting by setting: (358.15 K) 3.56 ± 0.24; (368.15 K) 3.65 ± 0.25; (378.15 K) 3.76 ± 0.26; (388.15 K) 3.93 ± 0.27.

With `Cc1ccc(C)cc1` [1,4-dimethylbenzene] + CCCCn1cc[n+](C)c1.CS(=O)(=O)[O-], the activity coefficient runs as follows: (358.15 K) 9.03 ± 0.62; (368.15 K) 9.2 ± 0.63; (378.15 K) 9.37 ± 0.64; (388.15 K) 9.71 ± 0.66.

On to `CCO` [ethanol] + CCCCn1cc[n+](C)c1.CS(=O)(=O)[O-], for which the activity coefficient stood at 0.533 ± 0.039 (398.15 K), 0.553 ± 0.04 (408.15 K), 0.576 ± 0.041 (418.15 K) and 0.599 ± 0.042 (428.15 K).

On to `CCCCCCCCC` [nonane] + CCCCn1cc[n+](C)c1.CS(=O)(=O)[O-], for which the activity coefficient (358.15 K) came to 251 ± 17, the activity coefficient (368.15 K) worked out at 239 ± 16, the activity coefficient (378.15 K) came out at 229 ± 16 and the activity coefficient (388.15 K) amounted to 223 ± 15.

With `CC1CCCCC1` [methylcyclohexane] + CCCCn1cc[n+](C)c1.[Cl-], the activity coefficient is, setting by setting: (358.15 K) 84.2 ± 5.8; (368.15 K) 79 ± 5.4; (378.15 K) 73 ± 5; (388.15 K) 69.8 ± 4.8.

Consider `C=Cc1ccccc1` [styrene] + CCCCn1cc[n+](C)c1.[Cl-], for which the activity coefficient is 4.96 ± 0.34 (358.15 K), 5.18 ± 0.35 (368.15 K), 5.42 ± 0.37 (378.15 K) and 5.73 ± 0.39 (388.15 K).

Regarding `CCCOCCC` [dipropyl ether] + CCCCn1cc[n+](C)c1.COP(=O)([O-])OC, the activity coefficient runs as follows: (358.15 K) 13.9 ± 0.95; (368.15 K) 13.7 ± 0.94; (378.15 K) 13.6 ± 0.93; (388.15 K) 13.4 ± 0.92.

Consider `C=CCCCC` [hex-1-ene] + CCCCn1cc[n+](C)c1.CS(=O)(=O)[O-], for which the activity coefficient was 39.7 ± 2.7 (358.15 K), 40 ± 2.7 (368.15 K), 40 ± 2.7 (378.15 K) and 40.3 ± 2.8 (388.15 K).

With `CCCCCCCCC` [nonane] + CCCCn1cc[n+](C)c1.COP(=O)([O-])OC, the activity coefficient is, setting by setting: (358.15 K) 67.9 ± 4.7; (368.15 K) 64 ± 4.4; (378.15 K) 61.5 ± 4.2; (388.15 K) 59.1 ± 4.

`C#CCCCCCC` [1-octyne] + CCCCn1cc[n+](C)c1.[Cl-]: the activity coefficient turned out to be 18.3 ± 1.2 (358.15 K), 19.2 ± 1.3 (368.15 K), 19.7 ± 1.4 (378.15 K) and 20.4 ± 1.4 (388.15 K).

As for `CC(C)O` [propan-2-ol] + CCCCn1cc[n+](C)c1.CS(=O)(=O)[O-], the activity coefficient by setting is: (398.15 K) 0.835 ± 0.054; (408.15 K) 0.878 ± 0.056; (418.15 K) 0.928 ± 0.059; (428.15 K) 0.976 ± 0.061.

In the case of `CC(C)OC(C)C` [diisopropyl ether] + CCCCn1cc[n+](C)c1.[Cl-], the activity coefficient was 78.5 ± 5.4 (358.15 K), 71.7 ± 4.9 (368.15 K), 64 ± 4.4 (378.15 K) and 59.1 ± 4 (388.15 K).

`CCCC(=O)OC` [methyl butanoate] + CCCCn1cc[n+](C)c1.[Cl-]: the activity coefficient turned out to be 12.3 ± 0.84 (358.15 K), 12.4 ± 0.85 (368.15 K), 12.6 ± 0.86 (378.15 K) and 12.7 ± 0.87 (388.15 K).

Consider `CCCOCCC` [dipropyl ether] + CCCCn1cc[n+](C)c1.[Cl-], for which the activity coefficient (358.15 K) was found to be 57.4 ± 3.9, the activity coefficient (368.15 K) was found to be 55.3 ± 3.8, the activity coefficient (378.15 K) is 52.8 ± 3.6 and the activity coefficient (388.15 K) came out at 51.9 ± 3.6.

For the compound `C1CCCCCCC1` [cyclooctane] + CCCCn1cc[n+](C)c1.COP(=O)([O-])OC, the activity coefficient amounted to 18.8 ± 1.3 (358.15 K), 18.2 ± 1.2 (368.15 K), 17.7 ± 1.2 (378.15 K) and 17.3 ± 1.2 (388.15 K).

As to `COC(C)(C)C` [2-methoxy-2-methylpropane] + CCCCn1cc[n+](C)c1.COP(=O)([O-])OC, the activity coefficient is, setting by setting: (358.15 K) 7.17 ± 0.49; (368.15 K) 7.35 ± 0.5; (378.15 K) 7.48 ± 0.51; (388.15 K) 7.66 ± 0.52.

Take `C=COC(C)=O` [vinyl acetate] + CCCCn1cc[n+](C)c1.COP(=O)([O-])OC: the activity coefficient reads like this: (358.15 K) 2.79 ± 0.19; (368.15 K) 2.88 ± 0.2; (378.15 K) 2.99 ± 0.2; (388.15 K) 3.13 ± 0.21.

`CCCC(C)=O` [pentan-2-one] + CCCCn1cc[n+](C)c1.CS(=O)(=O)[O-]: the activity coefficient reads like this: (358.15 K) 4.5 ± 0.31; (368.15 K) 4.59 ± 0.31; (378.15 K) 4.76 ± 0.32; (388.15 K) 4.91 ± 0.33.

In the case of `CC#N` [acetonitrile] + CCCCn1cc[n+](C)c1.CS(=O)(=O)[O-], the activity coefficient worked out at 0.99 ± 0.06 (358.15 K), 1.03 ± 0.06 (368.15 K), 1.08 ± 0.07 (378.15 K) and 1.12 ± 0.07 (388.15 K).

In the case of `CCC(=O)OC` [methyl propanoate] + CCCCn1cc[n+](C)c1.[Cl-], the activity coefficient was 8 ± 0.55 (358.15 K), 8.09 ± 0.55 (368.15 K), 8.2 ± 0.56 (378.15 K) and 8.31 ± 0.57 (388.15 K).
